Drawing on PubChem BioAssay AID190 (DTP/NCI, 2004), this text covers T/C for 11 molecules.

Values joined by “and” are separate entries in the source; they are usually repeats but may differ in a detail not shown here. Identical values can stand only once. Inconclusive results and toxic doses are left out.

The test system of the assay is AKR/Lw mice, AKR lymphoma ip, median survival T/C. Kind of assay: NCI In Vivo Anticancer Drug Screen. Data for tumor model Lymphoma AKR (Transplanted) (intraperitoneal) in AKR/Lw mice. The following applies: endpoint: median survival time, higher = longer survival. How it is done:
The antitumor activity of compounds was measured in mice bearing transplantable tumors. Survival or tumor size were measured and the results are expressed as the measurement made in the treated group (T) divided by the measurement made in the vehicle treated control group (C). The tumor model used in this assay is Lymphoma AKR (Transplanted) (intraperitoneal) in AKR/Lw mice

The mark [1] stands for this setting: dose: 12.5 mg/kg/injection, schedule: Q01DX009 (ip), vehicle: Klucel (hydroxypropylcellulose) (HPC).
The mark [2] stands for this setting: dose: 25.0 mg/kg/injection, schedule: Q01DX001 (ip), vehicle: saline.
The mark [3] stands for this setting: dose: 50.0 mg/kg/injection, schedule: Q01DX001 (ip), vehicle: saline.
Setting [4] is: dose: 100.0 mg/kg/injection, schedule: Q04DX003 (ip), vehicle: Klucel (hydroxypropylcellulose) (HPC).
The mark [5] stands for this setting: dose: 200.0 mg/kg/injection, schedule: Q01DX001 (ip), vehicle: saline.
Setting [6] is: dose: 200.0 mg/kg/injection, schedule: Q04DX003 (ip), vehicle: Klucel (hydroxypropylcellulose) (HPC).
Setting [7] is: dose: 400.0 mg/kg/injection, schedule: Q01DX001 (ip), vehicle: saline.
Setting [8] is: dose: 100.0 mg/kg/injection, schedule: Q01DX001 (ip), vehicle: Klucel (hydroxypropylcellulose) (HPC).
The mark [9] stands for this setting: dose: 200.0 mg/kg/injection, schedule: Q01DX001 (ip), vehicle: Klucel (hydroxypropylcellulose) (HPC).
[10] abbreviates: dose: 400.0 mg/kg/injection, schedule: Q01DX001 (ip), vehicle: Klucel (hydroxypropylcellulose) (HPC).
The mark [11] stands for this setting: dose: 100.0 mg/kg/injection, schedule: Q01DX001 (ip), vehicle: saline.

With `COc1ccc2cc1Oc1ccc(cc1)C[C@H]1c3cc(c(OC)cc3CCN1C)Oc1c(OC)c(OC)cc3c1[C@H](C2)N(C)CC3`, the T/C reads like this: (dose: 6.2 mg/kg/injection, schedule: Q01DX009 (ip), vehicle: Klucel (hydroxypropylcellulose) (HPC)) 110 % of control; (dose: 7.5 mg/kg/injection, schedule: Q01DX009 (ip), vehicle: saline) 90 % of control; under setting [1], 107 % of control and 113 % of control; (dose: 12.5 mg/kg/injection, schedule: Q01DX009 (ip), vehicle: saline) 111 % of control; (dose: 25.0 mg/kg/injection, schedule: Q01DX001 (ip), vehicle: Klucel (hydroxypropylcellulose) (HPC)) 94 % of control (2×) and 97 % of control; under setting [2], 95 % of control. The T/C reads like this: (dose: 25.0 mg/kg/injection, schedule: Q01DX009 (ip), vehicle: Klucel (hydroxypropylcellulose) (HPC)) 97 % of control and 100 % of control (2×); (dose: 25.0 mg/kg/injection, schedule: Q01DX009 (ip), vehicle: saline) 94 % of control; (dose: 25.0 mg/kg/injection, schedule: Q04DX003 (ip), vehicle: Klucel (hydroxypropylcellulose) (HPC)) 87 % of control; (dose: 25.0 mg/kg/injection, schedule: Q04DX003 (ip), vehicle: saline) 88 % of control and 109 % of control; (dose: 32.0 mg/kg/injection, schedule: Q04DX003 (ip), vehicle: water) 100 % of control; (dose: 50.0 mg/kg/injection, schedule: Q01DX001 (ip), vehicle: Klucel (hydroxypropylcellulose) (HPC)) 94 % of control and 110 % of control. The T/C is 95 % of control under setting [3]; 94 % of control and 107 % of control (dose: 50.0 mg/kg/injection, schedule: Q01DX009 (ip), vehicle: Klucel (hydroxypropylcellulose) (HPC)); 94 % of control and 116 % of control (dose: 50.0 mg/kg/injection, schedule: Q01DX009 (ip), vehicle: saline); 87 % of control (dose: 50.0 mg/kg/injection, schedule: Q04DX003 (ip), vehicle: Klucel (hydroxypropylcellulose) (HPC)); 97 % of control and 111 % of control and 114 % of control (dose: 50.0 mg/kg/injection, schedule: Q04DX003 (ip), vehicle: saline); 96 % of control (dose: 64.0 mg/kg/injection, schedule: Q04DX003 (ip), vehicle: water). The T/C reads like this: (dose: 75.0 mg/kg/injection, schedule: Q01DX001 (ip), vehicle: Klucel (hydroxypropylcellulose) (HPC)) 94 % of control; (dose: 100.0 mg/kg/injection, schedule: Q01DX009 (ip), vehicle: Klucel (hydroxypropylcellulose) (HPC)) 100 % of control; (dose: 100.0 mg/kg/injection, schedule: Q01DX009 (ip), vehicle: saline) 100 % of control and 106 % of control; under setting [4], 97 % of control; (dose: 100.0 mg/kg/injection, schedule: Q04DX003 (ip), vehicle: saline) 98 % of control and 100 % of control and 111 % of control; (dose: 128.0 mg/kg/injection, schedule: Q04DX003 (ip), vehicle: water) 107 % of control. The T/C is 87 % of control and 104 % of control and 111 % of control under setting [5]; 88 % of control and 94 % of control (dose: 200.0 mg/kg/injection, schedule: Q01DX009 (ip), vehicle: saline); 100 % of control under setting [6]; 97 % of control (dose: 200.0 mg/kg/injection, schedule: Q04DX003 (ip), vehicle: saline); 100 % of control (dose: 256.0 mg/kg/injection, schedule: Q04DX003 (ip), vehicle: water); 93 % of control and 100 % of control (2×) under setting [7].
Regarding `O=[N+]([O-])c1ccc(OCc2ccc(S(=O)(=O)F)c(Cl)c2)c(Cl)c1`, the T/C is, setting by setting: (dose: 3.0 mg/kg/injection, schedule: Q01DX009 (ip), vehicle: Klucel (hydroxypropylcellulose) (HPC)) 104 % of control; (dose: 6.0 mg/kg/injection, schedule: Q01DX009 (ip), vehicle: Klucel (hydroxypropylcellulose) (HPC)) 88 % of control; (dose: 12.0 mg/kg/injection, schedule: Q01DX009 (ip), vehicle: Klucel (hydroxypropylcellulose) (HPC)) 95 % of control; under setting [1], 100 % of control; under setting [8], 97 % of control; under setting [4], 90 % of control. The T/C under setting [9] is 97 % of control; the T/C under setting [6] was 88 % of control; the T/C under setting [10] is 90 % of control; the T/C (dose: 400.0 mg/kg/injection, schedule: Q04DX003 (ip), vehicle: Klucel (hydroxypropylcellulose) (HPC)) is 90 % of control.
In the case of `COc1ccc(S(=O)O)cc1NC(C)=O`, the T/C (dose: 50.0 mg/kg/injection, schedule: Q04DX003 (ip), vehicle: other) is 95 % of control; the T/C under setting [11] was 107 % of control; the T/C (dose: 100.0 mg/kg/injection, schedule: Q04DX003 (ip), vehicle: other) was 97 % of control; the T/C under setting [5] was 101 % of control; the T/C (dose: 200.0 mg/kg/injection, schedule: Q04DX003 (ip), vehicle: other) was 95 % of control.
Regarding `COc1cc2c(c3c1c(=O)c1ccccc1n3C)C=CC(C)(C)O2`, the T/C is 106 % of control (dose: 16.0 mg/kg/injection, schedule: Q01DX010 (ip), vehicle: Klucel (hydroxypropylcellulose) (HPC)); 103 % of control (dose: 31.25 mg/kg/injection, schedule: Q01DX010 (ip), vehicle: Klucel (hydroxypropylcellulose) (HPC)); 120 % of control (dose: 36.0 mg/kg/injection, schedule: Q03HX024 (ip), vehicle: Klucel (hydroxypropylcellulose) (HPC)); 122 % of control (dose: 62.5 mg/kg/injection, schedule: Q01DX010 (ip), vehicle: Klucel (hydroxypropylcellulose) (HPC)); 115 % of control (dose: 62.5 mg/kg/injection, schedule: Q03HX024 (ip), vehicle: Klucel (hydroxypropylcellulose) (HPC)); 115 % of control (dose: 125.0 mg/kg/injection, schedule: Q03HX024 (ip), vehicle: Klucel (hydroxypropylcellulose) (HPC)). In addition, the T/C (dose: 360.0 mg/kg/injection, schedule: Q04DX003 (ip), vehicle: Klucel (hydroxypropylcellulose) (HPC)) was 122 % of control.
In the case of `CC(C)c1ccc(C(c2c(O)c3ccccc3oc2=O)c2c(O)c3ccccc3oc2=O)cc1`, the T/C by setting is: under setting [8], 113 % of control; under setting [9], 106 % of control; under setting [10], 90 % of control.
Turning to `Cc1cccc(C)c1NC(=S)N(C)C`, the T/C by setting is: (dose: 2.5 mg/kg/injection, schedule: Q04DX003 (ip), vehicle: Klucel (hydroxypropylcellulose) (HPC)) 91 % of control; (dose: 5.0 mg/kg/injection, schedule: Q04DX003 (ip), vehicle: Klucel (hydroxypropylcellulose) (HPC)) 94 % of control; (dose: 10.0 mg/kg/injection, schedule: Q04DX003 (ip), vehicle: Klucel (hydroxypropylcellulose) (HPC)) 102 % of control; under setting [8], 92 % of control; under setting [10], 111 % of control.
For `CC(C)(CNc1ccc(C(=O)O)cc1)[N+](=O)[O-]`, the T/C by setting is: under setting [11], 102 % of control; under setting [5], 95 % of control; under setting [7], 86 % of control.
Consider `CCN(CC)CCOc1ccc2c(c1)C(=O)c1cc(OCCN(CC)CC)ccc1-2`, for which the T/C runs as follows: (dose: 2.5 mg/kg/injection, schedule: Q01DX001 (ip), vehicle: saline) 106 % of control; (dose: 5.0 mg/kg/injection, schedule: Q01DX001 (ip), vehicle: saline) 106 % of control; (dose: 10.0 mg/kg/injection, schedule: Q01DX001 (ip), vehicle: saline) 106 % of control; (dose: 20.0 mg/kg/injection, schedule: Q01DX001 (ip), vehicle: saline) 100 % of control; (dose: 25.0 mg/kg/injection, schedule: Q01DX007 (ip), vehicle: saline) 272 % of control; under setting [3], 102 % of control. In addition, where the note is “dose: 50.0 mg/kg/injection, schedule: Q01DX007 (ip), vehicle: saline”, the T/C is 102 % of control.
With `COc1cc(N)c2ncccc2c1SC`, the T/C by setting is: under setting [5], 102 % of control; under setting [7], 106 % of control.
With `NCOC(=O)Cc1ccc(Br)cc1`, the T/C runs as follows: under setting [8], 106 % of control; under setting [9], 102 % of control; under setting [10], 106 % of control.
Regarding `CC1(C)CC[N+]1(C)Cc1ccccc1` (stereo not drawn), the T/C was 97 % of control (dose: 6.25 mg/kg/injection, schedule: Q01DX001 (ip), vehicle: saline); 100 % of control (dose: 12.5 mg/kg/injection, schedule: Q01DX001 (ip), vehicle: saline); 100 % of control under setting [2].
